In one assay the test system is E. faecalis (ATCC 29212). The assay can be described thus: Antibacterial activity (MIC), Gram-positive type strain. Format: cell-based, Enteroccocus faecalis. The settings on record: Enterococcus faecalis, ATCC29212; Table 13.
Assay [1] relates to N. gonorrheae (ATCC 49226). As to the kind of experiment: Antibacterial activity (MIC), Gram-negative type strain. Format: cell-based, Neisseria gonorrhoeae. The settings on record: Neisseria gonorrhoeae, ATCC49226; Table 13.
Another assay deals with S. aureus (ATCC 29213). The assay can be described thus: Antibacterial activity (MIC), Gram-positive type strain. Type of assay: cell-based, Staphylococcus aureus. Particulars: Staphylococcus aureus, ATCC29213; Table 13.
Assay [2] has as its system H. influenzae (ATCC 49247). As to the kind of experiment: Antibacterial activity (MIC), Gram-negative type strain. Particulars: Haemophilus influenzae, ATCC49247; Table 13. Format: cell-based, Haemophilus influenzae.

Converted amounts (≈) assume the structure as drawn. A value given as a limit tells only on which side of the number the result lay.

As for `CCNC(=O)Nc1nc2cc(-c3cnc(NS(=O)(=O)NCC)nc3)cc(-c3ccc(C)cn3)c2s1` [Compound A-39, 1-ethyl-3-[5-[2-(ethylsulfamoylamino)pyrimidin-5-yl]-7-(5-methyl-2-pyridyl)-1,3-benzothiazol-2-yl]urea], the MIC is no more than 0.008 µg/mL with E. faecalis (ATCC 29212), 0.015 µg/mL (≈ 0.0293 µM) in assay [1], 0.015 µg/mL (≈ 0.0293 µM) with S. aureus (ATCC 29213) and 0.03 µg/mL (≈ 0.0585 µM) in assay [2].
In the case of `CCNC(=O)Nc1nc2cc(-c3cnc(NS(=O)(=O)C4CC4)nc3)cc(-c3ccc(C)cn3)c2s1` [Compound A-40, N-(5-(2-(3-ethylureido)-7-(5-methylpyridin-2-yl)benzo[d]thiazol-5-yl)pyrimidin-2-yl)cyclopropanesulfonamide], the MIC is no more than 0.008 µg/mL against E. faecalis (ATCC 29212), no more than 0.008 µg/mL in assay [1], 0.015 µg/mL (≈ 0.0294 µM) with S. aureus (ATCC 29213) and 0.015 µg/mL (≈ 0.0294 µM) in assay [2].
For the compound `CCNC(=O)Nc1nc2cc(-c3cnc(NS(=O)(=O)NC)nc3)cc(-c3ccccn3)c2s1` [Compound A-41, 1-ethyl-3-[5-[2-(methylsulfamoylamino)pyrimidin-5-yl]-7-(2-pyridyl)-1,3-benzothiazol-2-yl]urea], the MIC in the assay on E. faecalis (ATCC 29212) was no more than 0.008 µg/mL; in assay [1], 0.015 µg/mL (≈ 0.031 µM); in the assay with S. aureus (ATCC 29213), 0.5 µg/mL (≈ 1.03 µM); in assay [2], 0.06 µg/mL (≈ 0.124 µM).
For `CCNC(=O)Nc1nc2cc(-c3cnc(NS(=O)(=O)NC)nc3)cc(-c3ccc(C)cn3)c2s1` [Compound A-42, 1-ethyl-3-[7-(5-methyl-2-pyridyl)-5-[2-(methylsulfamoylamino)pyrimidin-5-yl]-1,3-benzothiazol-2-yl]urea], in that order: no more than 0.008 µg/mL, no more than 0.008 µg/mL, 0.06 µg/mL (≈ 0.12 µM) and 0.03 µg/mL (≈ 0.0602 µM).
For `CCNC(=O)Nc1nc2cc(-c3cnc(NS(=O)(=O)N4CCOCC4)nc3)cc(-c3ccc(C)cn3)c2s1` [Compound A-44, N-(5-(2-(3-ethylureido)-7-(5-methylpyridin-2-yl)benzo[d]thiazol-5-yl)pyrimidin-2-yl)morpholine-4-sulfonamide], in that order: no more than 0.008 µg/mL, no more than 0.008 µg/mL, 0.03 µg/mL (≈ 0.0541 µM) and 0.03 µg/mL (≈ 0.0541 µM).
For `CCNC(=O)Nc1nc2cc(-c3cnc(NS(=O)(=O)N4CCCC4)nc3)cc(-c3ccccn3)c2s1` [Compound A-45, N-(5-(2-(3-ethylureido)-7-(pyridin-2-yl)benzo[d]thiazol-5-yl)pyrimidin-2-yl)pyrrolidine-1-sulfonamide], in that order: no more than 0.008 µg/mL, no more than 0.008 µg/mL, 0.015 µg/mL (≈ 0.0286 µM) and 0.06 µg/mL (≈ 0.114 µM).
As for `CCNC(=O)Nc1nc2cc(-c3cnc(NS(=O)(=O)C[C@@H](N)Cc4ccccc4)nc3)cc(-c3ccc(C)cn3)c2s1` [Compound A-46, (S)-2-amino-N-(5-(2-(3-ethylureido)-7-(5-methylpyridin-2-yl)benzo[d]thiazol-5-yl)pyrimidin-2-yl)-3-phenylpropane-1-sulfonamide], the MIC in the assay on E. faecalis (ATCC 29212) was 0.25 µg/mL (≈ 0.415 µM); in assay [1], 0.06 µg/mL (≈ 0.0995 µM); with S. aureus (ATCC 29213), 1 µg/mL (≈ 1.66 µM); in assay [2], 2 µg/mL (≈ 3.32 µM).
For `CCNC(=O)Nc1nc2cc(-c3cnc(NS(=O)(=O)CC)nc3)cc(-c3ccc(C)cn3)c2s1` [Compound A-47, N-(5-(2-(3-ethylureido)-7-(5-methylpyridin-2-yl)benzo[d]thiazol-5-yl)pyrimidin-2-yl)ethanesulfonamide], in that order: no more than 0.008 µg/mL, no more than 0.008 µg/mL, 0.015 µg/mL (≈ 0.0301 µM) and no more than 0.008 µg/mL.
For `CCNC(=O)Nc1nc2cc(-c3cnc(NS(=O)(=O)C(C)C)nc3)cc(-c3ccc(C)cn3)c2s1` [Compound A-48, N-(5-(2-(3-ethylureido)-7-(5-methylpyridin-2-yl)benzo[d]thiazol-5-yl)pyrimidin-2-yl)propane-2-sulfonamide], in that order: no more than 0.008 µg/mL, no more than 0.008 µg/mL, 0.015 µg/mL (≈ 0.0293 µM) and 0.03 µg/mL (≈ 0.0586 µM).
In the case of `CCNC(=O)Nc1nc2cc(-c3cnc(NS(=O)(=O)N4CC(OC)C4)nc3)cc(-c3ccccn3)c2s1` [Compound A-49, N-(5-(2-(3-ethylureido)-7-(pyridin-2-yl)benzo[d]thiazol-5-yl)pyrimidin-2-yl)-3-methoxyazetidine-1-sulfonamide], the MIC against E. faecalis (ATCC 29212) was determined as 0.25 µg/mL (≈ 0.462 µM); in assay [1], 0.25 µg/mL (≈ 0.462 µM); against S. aureus (ATCC 29213) it was 1 µg/mL (≈ 1.85 µM); in assay [2], 2 µg/mL (≈ 3.7 µM).
`CCNC(=O)Nc1nc2cc(-c3cnc(NS(=O)(=O)N4CC(OC)C4)nc3)cc(-c3ccc(C)cn3)c2s1` [Compound A-50, N-(5-(2-(3-ethylureido)-7-(5-methylpyridin-2-yl)benzo[d]thiazol-5-yl)pyrimidin-2-yl)-3-methoxyazetidine-1-sulfonamide]: the MIC against E. faecalis (ATCC 29212) is 0.03 µg/mL (≈ 0.0541 µM); in assay [1], 0.25 µg/mL (≈ 0.451 µM); with S. aureus (ATCC 29213), 0.5 µg/mL (≈ 0.901 µM); in assay [2] it was 4 µg/mL (≈ 7.21 µM).
Regarding `CCNC(=O)Nc1nc2cc(-c3cnc(NS(=O)(=O)c4ccccc4)nc3)cc(-c3ccc(C)cn3)c2s1` [Compound A-51, N-(5-(2-(3-ethylureido)-7-(5-methylpyridin-2-yl)benzo[d]thiazol-5-yl)pyrimidin-2-yl)benzenesulfonamide], the MIC is 0.008 µg/mL (≈ 0.0147 µM) against E. faecalis (ATCC 29212), no more than 0.008 µg/mL in assay [1], 0.015 µg/mL (≈ 0.0275 µM) against S. aureus (ATCC 29213) and 0.015 µg/mL (≈ 0.0275 µM) in assay [2].
On to `CCNC(=O)Nc1nc2cc(-c3cnc(NS(=O)(=O)CCN4CCOCC4)nc3)cc(-c3ccc(C)cn3)c2s1` [Compound A-52, N-(5-(2-(3-ethylureido)-7-(5-methylpyridin-2-yl)benzo[d]thiazol-5-yl)pyrimidin-2-yl)-2-morpholinoethanesulfonamide], for which the MIC came to 0.12 µg/mL (≈ 0.206 µM) against E. faecalis (ATCC 29212), 0.03 µg/mL (≈ 0.0515 µM) in assay [1], 0.5 µg/mL (≈ 0.858 µM) with S. aureus (ATCC 29213) and 0.12 µg/mL (≈ 0.206 µM) in assay [2].
As for `CCNC(=O)Nc1nc2cc(-c3cnc(NS(=O)(=O)C4CCNC4)nc3)cc(-c3ccc(C)cn3)c2s1` (stereo not shown) [Compound A-53, N-(5-(2-(3-ethylureido)-7-(5-methylpyridin-2-yl)benzo[d]thiazol-5-yl)pyrimidin-2-yl)pyrrolidine-3-sulfonamide], the MIC was 0.5 µg/mL (≈ 0.928 µM) in the assay with E. faecalis (ATCC 29212), 2 µg/mL (≈ 3.71 µM) in assay [1], greater than 64 µg/mL in the assay with S. aureus (ATCC 29213) and greater than 64 µg/mL in assay [2].
In the case of `CCNC(=O)Nc1nc2cc(-c3cnc(NS(=O)(=O)N4CCC(O)C4)nc3)cc(-c3ccc(C)cn3)c2s1` (stereo not shown) [Compound A-54, N-(5-(2-(3-ethylureido)-7-(5-methylpyridin-2-yl)benzo[d]thiazol-5-yl)pyrimidin-2-yl)-3-hydroxypyrrolidine-1-sulfonamide], the MIC in the assay on E. faecalis (ATCC 29212) was no more than 0.008 µg/mL; in assay [1], no more than 0.008 µg/mL; with S. aureus (ATCC 29213) it was 0.12 µg/mL (≈ 0.216 µM); in assay [2] it was 0.03 µg/mL (≈ 0.0541 µM).
`CCNC(=O)Nc1nc2cc(-c3cnc(NS(=O)(=O)C4(CO)CC4)nc3)cc(-c3ccc(C)cn3)c2s1` [Compound A-55, N-(5-(2-(3-ethylureido)-7-(5-methylpyridin-2-yl)benzo[d]thiazol-5-yl)pyrimidin-2-yl)-1-(hydroxymethyl)cyclopropane-1-sulfonamide]: the MIC is no more than 0.008 µg/mL in the assay with E. faecalis (ATCC 29212), no more than 0.008 µg/mL in assay [1], 0.12 µg/mL (≈ 0.222 µM) with S. aureus (ATCC 29213) and 0.03 µg/mL (≈ 0.0556 µM) in assay [2].

For the origin of these results see US20170007615A1, “Antibacterial Compounds” (priority 2014, published 2017).
